Data taken from US20260157950A1, “Compounds and Cosmetic, Dermocosmetic, Cosmeceutical or Pharmaceutical Compositions for Relaxing Muscles, Including the Skeletal Muscles of the Face, for Anti-Aging Cosmetic Action, for Reducing and/or Smoothing Expression Lines and Wrinkles and/or for Antiperspirant Action, Uses and Methods” (Chemyunion Ltda, priority 2022, published 2026).
Ends that are not written are not given here. * marks the point of attachment. Palmitoyl = CCCCCCCCCCCCCCCC(=O)*

System: nasolabial and glabellar wrinkles
Assay: Assessment of clinical efficacy: topical facial treatment for 28 days, wrinkle evaluation with Bio3D Structured-light Scanner
Format: in vivo, human
Details: Day 28 vs Day 0, topical formulation containing peptide at 500 ppm, 10 volunteers per group
Protocol: Two groups of 10 volunteers underwent 28 days of topical treatment with the peptides SEQ NO ID 1 (Pro-Trp-Lys-Trp) or SEQ NO ID 2 (Pal-Pro-Thr-Lys-Trp) in the facial region. Nasolabial and glabellar lines were evaluated on Day 0 (before) and Day 28 (after 4 weeks of treatment) using Bio3D Structured-light Scanner. For wrinkle evaluation, images of the different areas were taken and processed through specific software. Three parameters (total area, length and depth of wrinkles) were obtained for each of the areas in each of the volunteers.

Substance | Decreased wrinkle intensity (D 28/D 0): Wrinkle area | Decreased wrinkle intensity (D 28/D 0): Wrinkle depth | Decreased wrinkle intensity (D 28/D 0): Wrinkle length
Pro-Trp-Lys-Trp (PWKW) [SEQ NO ID 1] | −10.92% | −9.23% | −14.97%
Pal-Pro-Thr-Lys-Trp (Palmitoyl-PTKW) [SEQ NO ID 2, N-palmitoylated peptide] | −7.81% | −6.59% | −11.76%
